# From patent US12605374B2, “Methods for drug screening and compositions useful for the inhibition of cell proliferation and/or cell survival” (The Brigham and Women's Hospital, Inc., priority 2019, dated 2026)
# “Also recorded” adds a separate entry of the source.
# Experiments:
# zebrafish embryos [1] = assay: DA5 dose, time course and washout analysis of developmental delay/arrest; type: in vivo
# Excerpt: FIG. 4 (A)-(E): Function of delay/arrest compounds. 7 of the 10 compounds predicted as having a delay/arrest phenotype with the highest confidence caused obvious but divergent delay/arrest effects (A). For chemical structures associated with these Chembridge IDs see Figure S13. (www.chembridge.com). Some arrested development at shield stage, while others caused a slower developmental progression.
# We reasoned that this was likely due to differences in the target affinities of the various DA compounds.
# embryonic zebrafish = assay: Blinded re-screen of top 10 prioritized ChemBridge compounds for developmental phenotypes in embryonic zebrafish; type: in vivo
# Procedure: Male and female wild-type (AB) fish were housed and embryos bred for screening using standard protocols. […] 10 mM compound stocks were diluted to 2 mM using DMSO, and 1 μL of each diluted compound solution was introduced into individual wells at 5 hours post fertilization (hpf) using a manual multichannel pipettor (10 uM final concentration). The first and last column of each plate received only DMSO, serving as negative control wells.
# Embryos were screened for a series of developmental phenotypes at both 24 and 48 hpf using standard light microscopy. […] Only those wells where at least two of the three embryos were dead or delayed were annotated as a hit for 24 hour death or delay/arrest, respectively.
# Resulting scores for each phenotype were used to rank the over 900,000 compounds. Enrichment for compounds with high (>0.95) similarity to known therapeutics (defined using Tanimoto Coefficient of molecular fingerprints) was calculated for each of the 6 ranked lists using gene set enrichment analysis^69. The top 10 highest-ranking compounds from each of the 6 lists were screened as described above, blinded and in duplicate.
# [2] = tested on: Human osteosarcoma cells (U-2 OS); assay: EdU proliferation assay in human cell line; type: cell-based; conditions: osteoblastic / immortalized cells (U-2 OS), four hours after drug introduction; positive control c-Myc inhibitor 10058-F4
# Procedure: FIG. 16 (A)-(C): Effect of DA5 in human cell culture. Proliferation of osteoblastic cells was measured following introduction of DA5.
# Human osteosarcoma cells (U-2 OS) were obtained from ATCC (HTB-96) and re-suspended in McCoy's 5a medium (ATCC 30-2007) containing 10% FBS and penicillin/streptomycin. Cells were passaged at least 5 times before use in proliferation assays. To perform the proliferation assay, cells were trypsinized using standard protocols, plated at 1000 cells per well in 96-well clear-bottom black cell culture treated plates, and allowed 24 hours to attach. Compounds of interest were dissolved in DMSO and introduced at an overall DMSO concentration not exceeding 0.1% by volume. Four hours after drug introduction, cells were stained and fixed using the protocol described in the Click-iT EdU Alexa Fluor 488 Imaging kit (Thermo Fisher), with Hoescht staining used to identify total cell numbers. Each well was imaged using a Nikon Eclipse Ti Epifluorescent microscope with automated stage and counts of dividing and total cells were obtained in an automated fashion using Nikon's NIS Elements software. Percent of dividing cells reported is the result of at least 4 replicates. Controls were given the same DMSO concentration by volume as compound-treated wells.
# Phospholipase C = target: T1, Phospholipase C (Bacillus cereus, UniProt P09598); assay: In vitro Phospholipase C activity assay (EnzChek Direct kit); type: biochemical
# T1 construct: purchased Thermo Fisher
# T1 sequence (P09598 39-283 limits assumed): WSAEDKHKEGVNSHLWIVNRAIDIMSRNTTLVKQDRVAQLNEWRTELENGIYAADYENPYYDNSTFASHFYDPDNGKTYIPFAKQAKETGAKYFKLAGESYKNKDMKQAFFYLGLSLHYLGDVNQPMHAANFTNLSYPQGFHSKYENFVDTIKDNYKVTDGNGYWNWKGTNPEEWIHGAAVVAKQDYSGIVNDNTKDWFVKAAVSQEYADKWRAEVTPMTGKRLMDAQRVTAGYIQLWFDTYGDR
# Procedure: Phospholipase D, C, and A2 activity were measured in vitro using commercial kits. For Phospholipase D, the Amplex Red Phospholipase D Assay Kit (Thermo Fisher) was used with Phospholipase D (Streptomyces chromofuscus—Enzo Life Sciences) added, and FIPI (4-Fluoro-N-(2-(4-(5-fluoro-1H-indol-1-yl)piperidin-1-yl)ethyl)benzamide, 5-Fluoro-2-indolyl deschlorohalopemide) hydrochloride (Sigma) acting as a positive control. To assay Phospholipase A2 activity, we used an EnzChek Phospholipase A2 Assay kit (Thermo Fisher) with Manoalide (Santa Cruz) as a positive control. To assay Phospholipase C activity, we used an EnzChek Direct Phospholipase C Assay Kit (Thermo Fisher) with D609 (Sigma) as a positive control. Tyrosinase activity was measured using a colorimetric Tyrosinase inhibitor screening kit (BioVision) with PTU as a positive control. For each assay, solutions were prepared in 96-well black clear bottom plates and read using a FLUOstar Omega plate reader at the wavelengths recommended by the respective manufacturers, with each measurement representing the average of at least 4 plate wells.
# zebrafish embryos [3] = assay: Respiration rate analysis (Seahorse XF24 oxygen consumption); type: in vivo; conditions: embryos from 5 hpf, versus DMSO control
# Procedure: Analysis of embryonic respiration was performed using a Seahorse XF24 analyzer (Agilent). Embryos at 5 hours post fertilization were arrayed in E3 media at 3 per well in a 24-well standard Seahorse plate using an isolating mesh (as in Stackley et al^72). Each plate contained four replicates of each indicated compound of interest, as well as 4 control wells receiving the equivalent DMSO as contained in the indicated compound solution, and 4 wells with no embryos present to act as a baseline for oxygen content of the media. The sample baseline was read for 5 cycles (3 minute mix, 2 minute wait, 5 minute measure), then compounds were introduced in a single 40-cycle injection phase (3 minute mix, 2 minute wait, 5 minute measure). Measurement data were exported using Seahorse software (Agilent) and averaged over 3 experimental days.
structure (smiles),measurement,setting,value
"CCC1(CC)CCN(C(=O)c2cc(COc3ccc4ncccc4c3)on2)C1 [ChemBridge ID 65692859, 6-([3-[(3,3-diethylpyrrolidin-1-yl)carbonyl]isoxazol-5-yl]methoxy)quinoline]",time course analysis: effect in more developed embryos,zebrafish embryos [1]; introduced at 24 hours post fertilization and beyond,mortality being almost immediate
same,time course analysis: effect on early development,"zebrafish embryos [1]; introduced at early stages (<12 h), up to and during gastrulation, listed as DA5",arrest up to and during gastrulation immediately after introduction; also recorded: arrested development at any stage of early (<12 h) development
same,developmental phenotype,zebrafish embryos [1]; introduced in zebrafish embryo medium at 5 μM,developmental delay
same,developmental phenotype,zebrafish embryos [1]; introduced in zebrafish embryo medium at 10 μM,sphere stage arrest
same,recovery of embryos after washout,zebrafish embryos [1]; washout of compound,did not allow embryos to recover
same,Hit (predicted phenotype observed),embryonic zebrafish; Prediction: Delay/Arrest,Yes
same,Phenotype Observed,"embryonic zebrafish; embryonic zebrafish, 10 uM introduced at 5 hpf, scored at 24 and 48 hpf, blinded, in duplicate","Bud stage at 24 h, dead at 48 h"
same,suppression of cell proliferation,[2],greater than that seen with positive control
same,activity of phospholipase C,Phospholipase C,increased activity
same,respiration rate (oxygen consumption rate),zebrafish embryos [3],consistent respiration rate
